Measured values published in the supplement of paper PMC10307832.

How the values were obtained:
Assay in all cases: relative viability (nuclei count vs DMSO), 5 days (fraction); higher = more cells survive
[1] = compound: COc1cc2nc(N3CCCN(C)CC3)nc(NC3CCN(Cc4ccccc4)CC3)c2cc1OC + COc1cc2c(Oc3ccc(NC(=O)C4(C(=O)Nc5ccc(F)cc5)CC4)cc3F)ccnc2cc1OCCCN1CCOCC1 [Foretinib] (partner 0.25 µM)
Procedure, shortened: (§1)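 Lung cancer cell lines were seeded in 1536-well plates and dosed by pin tool the next day, with either a single drug or a fixed anchor-drug dose combined with five library-drug doses (not always all listed) spaced in √10 steps. Five days later, one step fixed the cells and stained their nuclei (final 0.05% Triton X-100, 1% formaldehyde, 1 ug/ml Hoechst), and nuclei were counted on 4× images. Relative viability is the nuclei count in treated wells divided by the count in vehicle wells, and each value is the median of duplicate plates.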

[2] = compound: COc1cc2nc(N3CCCN(C)CC3)nc(NC3CCN(Cc4ccccc4)CC3)c2cc1OC + CS(=O)(=O)CCNCc1ccc(-c2ccc3ncnc(Nc4ccc(OCc5cccc(F)c5)c(Cl)c4)c3c2)o1 [Lapatinib] (partner 2 µM)
Procedure, shortened: as §1

[3] = compound: Cc1cc([C@@H](C)Nc2ccccc2C(=O)O)c2nc(N3CCOCC3)cc(=O)n2c1 [AZD6482] + O=C(c1cc(Cc2n[nH]c(=O)c3ccccc23)ccc1F)N1CCN(C(=O)C2CC2)CC1 [Olaparib] (partner 8 µM)
Procedure, shortened: as §1

[4] = compound: Cc1cc([C@@H](C)Nc2ccccc2C(=O)O)c2nc(N3CCOCC3)cc(=O)n2c1 [AZD6482] + COc1cccc2cc(-c3nc([C@H]4CC[C@H](C(=O)O)CC4)n4ncnc(N)c34)[nH]c12 [OSI-027] (partner 0.5 µM)
Procedure, shortened: as §1

Cell Line	relative viability ([1]; first compound 0.2 µM)	relative viability ([1]; first compound 0.6325 µM)	relative viability ([1]; first compound 2 µM)	relative viability ([1]; first compound 6.325 µM)	relative viability ([2]; first compound 0.2 µM)	relative viability ([2]; first compound 0.6325 µM)	relative viability ([2]; first compound 2 µM)	relative viability ([2]; first compound 6.325 µM)	relative viability ([3]; first compound 0.08 µM)	relative viability ([3]; first compound 0.253 µM)	relative viability ([3]; first compound 0.8 µM)	relative viability ([3]; first compound 2.53 µM)	relative viability ([3]; first compound 8 µM)	relative viability ([4]; first compound 0.08 µM)	relative viability ([4]; first compound 0.253 µM)	relative viability ([4]; first compound 0.8 µM)	relative viability ([4]; first compound 2.53 µM)	relative viability ([4]; first compound 8 µM)
201T	1.13	1.08	1.09	1.11	0.95	1.04	1.08	0.982	0.839	0.8	0.872	0.727	0.848	0.657	0.663	0.631	0.462	0.601
A549	0.951	0.966	0.997	0.763	1.06	0.897	1.04	0.827	0.26	0.33	0.37		0.315					
A-427	0.918	0.977	1.13	1.09	1.07	0.977	1.05	1	0.5	0.718	0.739	0.514	0.66	0.458	0.348	0.52		0.423
ABC-1	1.04	1.35	1.32	0.996	1.09	1.14	1.25	1.05	0.602	0.464	0.881	0.801	0.52	0.51	0.478	0.358	0.401	0.406
BEN	0.908	0.786	0.91	0.972	0.721	0.953	0.94	0.721	0.915	0.934	0.946	0.875	0.816	0.314	0.302	0.273	0.276	0.299
CAL-12T	1.01	1.15	1.38	0.941	0.58	0.626	0.603	0.672	0.746	0.702	0.712	0.595	0.543	0.706	0.715	0.519	0.348	0.342
COR-L23	1.02	0.95	0.965	0.996	0.848	0.849	1.1	0.92	0.272	0.414	0.364	0.195	0.34	0.552	0.791	0.911	0.611	0.751
COR-L 105	1.06	1.27	1.13	0.921	0.395	0.424	0.322	0.278	0.607	0.851	0.726	0.549	0.687	0.75	0.742	0.577	0.33	0.517
Calu-6	0.867	0.865	0.983	0.903	1.02	0.985	1.19	0.985	0.516	0.493	0.533	0.527	0.543					
ChaGo-K-1	1	0.929	0.941	0.907					0.399	0.436	0.42	0.431	0.4	0.634	0.323	0.539	0.477	0.49
EBC-1	0.1	0.117	0.114	0.107	0.222	0.177	0.18	0.155	0.533	0.675	0.637	0.467	0.301					
EKVX	0.754	0.814	0.986	0.794	0.194	0.218	0.232	0.223	0.671	0.773	0.855	0.469	0.595	0.624	0.62	0.684	0.387	0.434
EMC-BAC-2	0.956	0.973	1.05	1.01	0.908	0.881	0.914	0.891	0.455	0.479	0.523	0.471	0.44	0.394	0.376	0.347	0.273	0.316
EPLC-272H	0.783	0.723	0.847	0.686	0.947	1.1	1.03	0.938	0.567	0.681	0.687	0.463	0.294	0.29	0.235	0.345	0.214	0.255
H3255	0.857	0.812	0.981	1.05	0.235	0.273	0.258	0.165	0.559	0.567	0.596	0.492	0.55	0.618	0.53	0.554	0.411	0.392
HARA	0.973	0.9	0.92	0.92	0.793	0.86	0.823	0.804	0.685	1.01	0.943	0.683	0.519	0.318	0.528	0.633	0.249	0.376
HCC-15	1.1	1	1.06	0.853	0.888	0.789	0.824	0.765	0.692	0.662	0.737	0.697	0.768	0.672	0.61	0.666	0.385	0.485
HCC-44					1.01	0.989	1.05	1.04	1	1.11	1.1	1.15	1.08	0.46	0.511	0.574	0.37	0.296
HCC-78	0.57	0.578	0.58	0.533	0.704	1.06	1.03	0.882	0.663	0.641	0.533	0.383	0.416	0.316	0.315	0.32	0.265	0.303
HCC-366	0.916	0.966	0.906	0.945	1.02	1.03	1.12	0.956	0.328	0.342	0.433	0.259	0.282	1.01	0.801	0.906	0.574	0.515
HCC-827	1.06	1.12	1.05	1.02	0.181	0.196	0.198	0.193	0.653	0.594	0.515	0.432	0.996	0.709	0.658	0.8	0.451	0.48

Cell Line	relative viability ([1]; first compound 0.2 µM)	relative viability ([1]; first compound 0.6325 µM)	relative viability ([1]; first compound 2 µM)	relative viability ([1]; first compound 6.325 µM)	relative viability ([2]; first compound 0.2 µM)	relative viability ([2]; first compound 0.6325 µM)	relative viability ([2]; first compound 2 µM)	relative viability ([2]; first compound 6.325 µM)	relative viability ([3]; first compound 0.08 µM)	relative viability ([3]; first compound 0.253 µM)	relative viability ([3]; first compound 0.8 µM)	relative viability ([3]; first compound 2.53 µM)	relative viability ([3]; first compound 8 µM)	relative viability ([4]; first compound 0.08 µM)	relative viability ([4]; first compound 0.253 µM)	relative viability ([4]; first compound 0.8 µM)	relative viability ([4]; first compound 2.53 µM)	relative viability ([4]; first compound 8 µM)
HOP-62	1.06	1.09	1.1	1.15	1.04	1.05	1.07	1	0.444	0.539	0.453	0.459	0.552	0.817	0.883	0.774	0.553	0.765
IA-LM	1.13	0.807	1.34	1.16		0.888	1.03	0.669	0.982	0.995	1.15		0.759					
LC-2-ad	0.813	0.938	0.956	0.974	0.853	0.992	1.01	0.898	0.727	0.735	0.795	0.64	0.803	0.734	0.757	0.807	0.581	0.565
LCLC-97TM1	0.951	0.994	0.913	0.844	0.875		1.17	0.836	0.403	0.285	0.413		0.244	0.482	0.399	0.384	0.255	0.312
LCLC-103H	0.826	0.857	0.825	0.772					0.677	0.745	0.648	0.543	0.569	0.414	0.452	0.492	0.273	0.31
LK-2	1.49	0.932	1.13	1.12	0.983	0.996	1.14	0.909	0.916	0.731	0.581	0.73	0.432	0.222	0.2	0.177	0.196	0.177
LOU-NH91	0.933	0.996	0.866	0.993	0.803	0.812	0.731	0.693	0.851	0.917	0.898	0.595	0.755	0.606	0.702	0.66	0.455	0.579
LU99A	0.895	0.864	0.821	0.803	0.909	0.93	1.1	0.898	0.259	0.273	0.255	0.28	0.24	0.301	0.276	0.325	0.203	0.3
LXF-289	0.936	0.993	0.984	1	0.854	0.878	0.886	0.907	1.02	1.05	1.11	0.986	0.918	0.825	0.643	0.772	0.559	0.615
NCI-H23	0.914	1.06	1.12	0.918	1.02	1.03	1.37	1.02	0.26	0.371	0.411	0.266	0.247	0.592	0.512	0.592	0.364	0.302
NCI-H441	0.957	0.954	0.928	1.02					0.604	0.525	0.541		0.449	0.669	0.4	0.627		0.508
NCI-H522									0.573	0.697	0.634	0.596	0.577	0.599	0.784	0.635	0.688	0.54
NCI-H1299	1.07	1.07	1.13	1.06	0.965	0.933	0.972	0.862	0.995	1.02	1.07	0.992	0.934					
NCI-H1563	1.03	0.944	0.973	0.824	0.913	0.982	0.81	0.734						0.771	0.749	0.738	0.7	0.619
NCI-H1623	0.903	0.94	0.848	0.768										0.392	0.404	0.432	0.388	0.397
NCI-H1648									0.575	0.823	0.715		0.638	0.297	0.268	0.245	0.228	0.276
NCI-H1703	0.313	0.317	0.412	0.448	0.981	0.901	1.05	0.458	0.342	0.456	0.258	0.133	0.167					
NCI-H1792					0.953	0.893	0.94	1.02	0.151	0.345	0.365	0.234	0.138	0.662	0.677	0.73	0.511	0.406
NCI-H2342	1.1	1	1.17	1.1					0.346	0.368	0.4	0.42	0.329	0.542	0.586	0.568	0.448	0.471
SW 900	0.679	1.15	0.779	0.857					0.678	0.665	0.661	0.623	0.616	0.45	0.471	0.433		0.492
